# Tests used:
# [1] = Electronic absorption spectra in organic solvents; format: physicochemical
# Method: (§1) The absorption and emission spectra of dyes solutions (in the range of 10^−6 to 10^−5 M) were recorded on CM 2203 spectrofluorometer (SOLAR) in a 10 mm of absorbing layer thickness at T = 25 ± 0.1 °C. The fluorescence quantum yield (φ), the fluorescence lifetime (τ), the rate constants of radiative processes (krad), and-radiative deactivation (knr) were obtained to use by the standard procedure. The fluorescence quantum yields (φ) of compounds were measured using the standard method (using standard Rhodamine 6G). The φ and τ errors were 10–15 %. The Stokes shift ( ΔλSt ) was calculated by the formula: […]
# [2] = Luminescent characteristics (fluorescence) in organic solvents; format: physicochemical; settings: for λmaxfl: λex 470 nm
# Method: as §1
# [3] = Photobleaching (photodegradation) under UV irradiation at 365 nm; format: physicochemical
# Method: The photofading was carried out in quartz cells. The BODIPY solutions in cyclohexane (toluene, 1-octanol, DMSO with c = ~1·10^−5 mol·L^−1) were irradiated with monochromatic light (mercury lamp 250 W with a light filter Carl Zeiss JENA, at λ = 365 nm and room temperature). The area of the light flux was 2.02 cm^2 at a specific power W365 = 4.04 mW·cm^−2 of the UV lamp. The irreversible bleaching of the luminophores at the absorption peak was monitored as a function of time. The EAS of the dye solution was recorded at equal intervals of irradiation (through 5–20 min) on a spectrofluorometer SM2203 in the 300–600 nm wavelength range. The half-life (t1/2) was defined as the time during which the chromophore is destroyed by 50%. The error in determining of t1/2 is 3–5%.
# The observed photooxidation rate constants (kobs) were determined by the equation ln(At/A0) = kobs∙t, where A0 and At are the initial and current optical density at the maximum of the long-wavelength absorption band, respectively, and t is the time of irradiation of the sample with UV light.
# [4] = system: laboratory mice erythrocytes; experiment: Hemolytic activity (erythrotoxicity); format: cell-based; settings: 20 µM, entire incubation period 5 h, 37 °C, PBS pH 7.4
# Method: A 0.5% (v/v) suspension of laboratory mice erythrocytes in phosphate-buffered saline (PBS, pH 7.4) was used. The hemolytic activity (erythrotoxicity) of the compounds 2 and 6 was assessed by the degree of erythrocyte hemolysis 1, 3, and 5 h after the addition of solutions of the test compounds in DMSO (final concentration 20 μM). The erythrocyte suspension was incubated in a thermostatic shaker Biosan ES-20 with slow stirring at 37 °C temperature for 5 h. After 1, 3, and 5 h, an aliquot was taken, centrifuged, the degree of hemolysis was determined by the hemoglobin content in the supernatant on a Thermo Spectromic Genesys 20 spectrophotometer at λ = 541 nm. The percentage of hemolysis was calculated relative to the total hemolysis of the sample.
# [5] = system: laboratory mice erythrocytes; experiment: Penetration into RBC (fluorescence of hemolysates and of residual medium); format: cell-based
# Method: To assess the rate of penetration of the BODIPY 2 and its conjugate with a thioterpenoid 6 into RBC, the compounds were added to a suspension of erythrocytes (final concentration 20 μM) and incubated in a thermostatic shaker Biosan ES-20 with slow stirring at 37 °C. After 10, 30, and 60 min, an aliquot was taken and centrifuged to separate erythrocytes from the incubation medium containing the BODIPY 2 or conjugate 6. Erythrocytes were washed three times with PBS, hemolyzed by adding H2O, DMSO was added, and the fluorescence spectra of hemolysates were studied using a Fluorat-02-Panorama spectrofluorometer (Lumex, Saint Petersburg, Russia). The binding of the BODIPY 2 or conjugate 6 to cells was judged from the fluorescence intensity of the corresponding compounds in hemolysates. DMSO was added to the medium (PBS) remaining after cell incubation, and the corresponding fluorescence spectra were also analyzed. Its intensity was used to judge the residual content of the studied compounds in PBS.
# RBC = experiment: Uptake by erythrocytes visualized with CytoFLEX; format: cell-based, mice; settings: 0.1 µM, 10 min, 488/521 nm λex/λem
# Method: The uptake of compounds by erythrocytes was visualized using CytoFLEX SRT (Beckman Coulter) (0.2% suspension of RBC, compound concentration 0.1 μM), exposure time 10 min. Each experiment was carried out in 5–15 replicates. Statistical analysis was conducted using Microsoft Office Excel 2007 software packages. The data represent the mean ± SE.
# [6] = Solubility in water / micellar solution (NMR samples); format: physicochemical; settings: DPC micelles, D2O
# [7] = range over the solvents studied
compound,measurement,setting,value
CC1=CC(C)=[N+]2C1=C(CCCC(=O)OCCSC1CC3CCC1(C)C3(C)C)c1c(C)cc(C)n1[B-]2(F)F (stereo not shown) [Compound 6],"ε, molar absorption coefficient",[1]; 1-butanol,66887 L/mol/cm
same,λmaxabs S0→S1,[1]; 1-butanol,501 nm
same,λmaxabs S0→S2,[1]; 1-butanol,355–366 nm
same,"ε, molar absorption coefficient",[1]; 1-octanol,68275 L/mol/cm
same,λmaxabs S0→S1,[1]; 1-octanol,501 nm
same,λmaxabs S0→S2,[1]; 1-octanol,355–363 nm
same,"ε, molar absorption coefficient",[1]; 1-propanol,68931 L/mol/cm
same,λmaxabs S0→S1,[1]; 1-propanol,500 nm
same,λmaxabs S0→S2,[1]; 1-propanol,356–361 nm
same,"ε, molar absorption coefficient",[1]; DMF,70218 L/mol/cm
same,λmaxabs S0→S1,[1]; DMF,499 nm
same,λmaxabs S0→S2,[1]; DMF,357–361 nm
same,"ε, molar absorption coefficient",[1]; DMSO,68188 L/mol/cm
same,λmaxabs S0→S1,[1]; DMSO,500 nm
same,λmaxabs S0→S2,[1]; DMSO,355–360 nm
same,"extinction coefficient ɛ, range","[1]; at 498–503 nm, organic solvents, in L/mol·cm","64,000–78,000"
same,"ε, molar absorption coefficient",[1]; chloroform,76900 L/mol/cm
same,λmaxabs S0→S1,[1]; chloroform,503 nm
same,λmaxabs S0→S2,[1]; chloroform,352–363 nm
same,"ε, molar absorption coefficient",[1]; cyclohexane,75390 L/mol/cm
same,λmaxabs S0→S1,[1]; cyclohexane,502 nm
same,λmaxabs S0→S2,[1]; cyclohexane,357–362 nm
same,"ε, molar absorption coefficient",[1]; ethanol,64235 L/mol/cm
same,λmaxabs S0→S1,[1]; ethanol,498 nm
same,λmaxabs S0→S2,[1]; ethanol,359–361 nm
same,"ε, molar absorption coefficient",[1]; toluene,78830 L/mol/cm
same,λmaxabs S0→S1,[1]; toluene,503 nm
same,λmaxabs S0→S2,[1]; toluene,352–360 nm
same,"ΔλSt, Stokes shift",[2]; 1-butanol,15 nm
same,"φ, fluorescence quantum yield",[2]; 1-butanol,0.884
same,λmaxfl,[2]; 1-butanol,516 nm
same,"ΔλSt, Stokes shift",[2]; 1-octanol,13 nm
same,"φ, fluorescence quantum yield",[2]; 1-octanol,0.941
same,λmaxfl,[2]; 1-octanol,514 nm
same,"ΔλSt, Stokes shift",[2]; 1-propanol,14 nm
same,"φ, fluorescence quantum yield",[2]; 1-propanol,0.861
same,λmaxfl,[2]; 1-propanol,514 nm
same,"ΔλSt, Stokes shift",[2]; DMF,16 nm
same,"φ, fluorescence quantum yield",[2]; DMF,0.833
same,increase of nonradiative deactivation constant knr,[2]; DMF and DMSO compared to cyclohexane,200–300 times
same,λmaxfl,[2]; DMF,515 nm
same,"ΔλSt, Stokes shift",[2]; DMSO,15 nm
same,"φ, fluorescence quantum yield",[2]; DMSO,0.763
same,λmaxfl,[2]; DMSO,515 nm
same,"fluorescence quantum yield φ, range","[2]; at 514–519 nm, organic solvents",76–100%
same,"ΔλSt, Stokes shift",[2]; chloroform,14 nm
same,"φ, fluorescence quantum yield",[2]; chloroform,0.878
same,λmaxfl,[2]; chloroform,517 nm
same,"ΔλSt, Stokes shift",[2]; cyclohexane,13 nm
same,"φ, fluorescence quantum yield",[2]; cyclohexane,0.999
same,λmaxfl,[2]; cyclohexane,515 nm
same,fluorescence quenching,[2]; electron-donating media,16–24%
same,"ΔλSt, Stokes shift",[2]; ethanol,16 nm
same,"φ, fluorescence quantum yield",[2]; ethanol,0.857
same,increase of fluorescence quantum yield in the homologous series of alcohols,"[2]; ethanol, 1-propanol, 1-butanol, 1-octanol",~ 8%
same,λmaxfl,[2]; ethanol,514 nm
same,constants of radiative processes (krad),[2]; [7],5.96–8.33 × 10^7 s^−1
same,fluorescence lifetime,[2]; [7],10.2–16.0 ns
same,"ΔλSt, Stokes shift",[2]; toluene,16 nm
same,"φ, fluorescence quantum yield",[2]; toluene,0.867
same,λmaxfl,[2]; toluene,519 nm
same,"emission band maxima λmaxfl, range","[2]; λex = 470 nm, all solvents",510–519 nm
same,increase of photodegradation (photooxidation) efficiency in DMSO,[3]; DMSO compared to cyclohexane,> 10 times
same,increase of photostability compared to the meso-unsubstituted analog,[3]; UV irradiation,~ 2 times
same,half-life increase / photodestruction rate constant decrease compared to 7,[3]; studied solvents,1.5–2.2 times
same,hemolysis of RBC (erythrotoxicity),[4],did not exceed the spontaneous level
same,penetration into erythrocytes (fluorescence of RBC hemolysates),"[5]; 20 μM, 10, 30, 60 min incubation, RBC washed three times with PBS",actively penetrates erythrocytes
same,absorption by RBC from the incubation medium (decline of supernatant fluorescence),"[5]; 20 μM, 60 min incubation, PBS",more intensively than the initial BODIPY 2
same,relative content of BODIPY-positive cells,RBC,more than an order of magnitude higher
CC1(C)C2CC=C(CO)C1C2 (stereo not shown) [myrtenol],solubility in the micellar solution,[6],better solubility

# — article PMC9138141, “Design, Spectral Characteristics, Photostability, and Possibilities for Practical Application of BODIPY FL-Labeled Thioterpenoid” (Bioengineering, 2022)
